From ChEMBL document CHEMBL1127122, “Neurotensin receptor binding and antinociceptive activity for lipophilic N-amido neurotensin(913) analogs” (Bioorg Med Chem Lett, 1993)
Non-standard residues stand in square brackets, D forms with d. Residues, ends and D or L forms follow the SMILES beside them. *: point of attachment. Adamantane1carbonyl = O=C(C12CC3CC(CC(C3)C1)C2)*; Stearoyl = CCCCCCCCCCCCCCCCCC(=O)*; Nicotinoyl = O=C(c1cccnc1)*; Orn = NCCC[C@H](N)C(=O)O; Boc = CC(C)(C)OC(=O)*; Piv = CC(C)(C)C(=O)*; Bz = O=C(c1ccccc1)*

How the values were obtained:
[1] = system: Mus musculus; test: Analgesic activity in fasted male mice in phenylquinone writhing assay 10 min after i.c.v. administration.; assay type: functional
[2] = system: Mus musculus; test: Analgesic activity of i.v. administered compound in fasted male mice at 10 min. interval was determined using phenylquinone writhing assay; assay type: functional; conditions: iv
[3] = system: Mus musculus; test: Analgesic activity in fasted male mice in phenylquinone writhing assay 5 min after i.c.v. administration.; assay type: functional
[4] = target: Kappa-type opioid receptor (Cavia porcellus, UniProt P41144); test: Compound was evaluated for binding affinity against Opioid receptor kappa 1 by opioid receptor binding assay: Inactive
[5] = target: Mu-type opioid receptor (Cavia porcellus, UniProt P97266); test: Compound was evaluated for binding affinity against mu receptor by opioid receptor binding assay: Inactive
[6] = system: Mus musculus; test: Analgesic activity of i.v. administered compound in fasted male mice at 5 min. interval was determined using phenylquinone writhing assay; assay type: functional; conditions: iv
[7] = system: Mus musculus; test: Analgesic activity in fasted male mice in phenylquinone writhing assay 40 min after i.c.v. administration.; assay type: functional
[8] = target: Neurotensin receptor type 1 (Rattus norvegicus, UniProt P20789); test: Binding affinity against rat neurotensin receptor.
Neurotensin receptor type 1, sequence (P20789 whole entry): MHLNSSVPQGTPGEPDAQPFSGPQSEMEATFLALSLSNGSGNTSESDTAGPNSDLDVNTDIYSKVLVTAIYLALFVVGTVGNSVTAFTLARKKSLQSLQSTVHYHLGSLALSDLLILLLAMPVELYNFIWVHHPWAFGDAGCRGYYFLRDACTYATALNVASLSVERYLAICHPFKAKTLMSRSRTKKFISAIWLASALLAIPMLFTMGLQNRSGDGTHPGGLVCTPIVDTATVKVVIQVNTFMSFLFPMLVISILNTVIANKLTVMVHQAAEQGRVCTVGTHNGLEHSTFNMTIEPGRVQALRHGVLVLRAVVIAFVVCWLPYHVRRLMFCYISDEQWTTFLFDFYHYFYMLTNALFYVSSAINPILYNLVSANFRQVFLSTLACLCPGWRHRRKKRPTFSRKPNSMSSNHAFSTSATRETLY

Mu-type opioid receptor, sequence (P97266 whole entry): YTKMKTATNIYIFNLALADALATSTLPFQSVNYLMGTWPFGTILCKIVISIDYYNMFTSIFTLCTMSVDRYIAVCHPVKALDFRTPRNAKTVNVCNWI
Kappa-type opioid receptor, sequence (P41144 whole entry): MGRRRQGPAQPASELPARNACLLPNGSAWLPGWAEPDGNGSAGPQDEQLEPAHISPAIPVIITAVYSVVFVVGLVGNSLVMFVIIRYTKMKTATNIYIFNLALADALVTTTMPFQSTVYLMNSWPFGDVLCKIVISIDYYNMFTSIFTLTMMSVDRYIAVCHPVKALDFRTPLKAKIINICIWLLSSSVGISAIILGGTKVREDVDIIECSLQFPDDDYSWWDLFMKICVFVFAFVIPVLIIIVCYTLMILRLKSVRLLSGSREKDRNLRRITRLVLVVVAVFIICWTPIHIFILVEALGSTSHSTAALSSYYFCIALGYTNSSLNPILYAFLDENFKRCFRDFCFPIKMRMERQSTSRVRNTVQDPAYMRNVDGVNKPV

Structure (SMILES)	ED50 [1]	ED50 [2]	ED50 [3]	Ki [4]	Ki [5]	ED50 [6]	ED50 [7]	Ki [8]
CC[C@H](C)[C@H](NC(=O)[C@H](Cc1ccc(O)cc1)NC(=O)[C@@H]1CCCN1C(=O)[C@H](CCCCN)NC(=O)C12CC3CC(CC(C3)C1)C2)C(=O)N[C@@H](CC(C)C)C(=O)O (Adamantane1carbonyl-KPYIL-OH)	0.22 ug mouse-1	2.8 mg/kg	0.15 ug mouse-1	> 10000 nM	> 10000 nM	2.2 mg/kg	0.71 ug mouse-1	–
CC[C@H](C)[C@H](NC(=O)[C@H](Cc1ccc(O)cc1)NC(=O)[C@@H]1CCCN1C(=O)[C@H](CCCN)NC(=O)C12CC3CC(CC(C3)C1)C2)C(=O)N[C@@H](CC(C)C)C(=O)O (Adamantane1carbonyl-[Orn]PYIL-OH) [listing 1 of 2 here]	–	–	–	–	–	–	–	180 nM
CC[C@H](C)[C@H](NC(=O)[C@H](Cc1ccc(O)cc1)NC(=O)[C@@H]1CCCN1C(=O)[C@H](CCCN)NC(=O)C12CC3CC(CC(C3)C1)C2)C(=O)N[C@@H](CC(C)C)C(=O)O (Adamantane1carbonyl-[Orn]PYIL-OH) [listing 2 of 2 here]	0.45 ug mouse-1	11 mg/kg	0.13 ug mouse-1	–	–	4.8 mg/kg	3.6 ug mouse-1	–
CC[C@H](C)[C@H](NC(=O)[C@H](Cc1ccc(O)cc1)NC(=O)[C@@H]1CCCN1C(=O)[C@H](CCCCN)NC(=O)OC(C)(C)C)C(=O)N[C@@H](CC(C)C)C(=O)O (Boc-KPYIL-OH)	0.11 ug mouse-1	6.5 mg/kg	0.02 ug mouse-1	–	–	3.1 mg/kg	0.2 ug mouse-1	–
CC[C@H](C)[C@H](NC(=O)[C@H](Cc1ccc(O)cc1)NC(=O)[C@@H]1CCCN1C(=O)[C@H](CCCN)NC(=O)OC(C)(C)C)C(=O)N[C@@H](CC(C)C)C(=O)O (Boc-[Orn]PYIL-OH)	0.044 ug mouse-1	2 mg/kg	0.00084 ug mouse-1	–	–	0.85 mg/kg	0.69 ug mouse-1	–
CC[C@H](C)[C@H](NC(=O)[C@H](Cc1ccc(O)cc1)NC(=O)[C@@H]1CCCN1C(=O)[C@H](CCCCN)NC(=O)c1ccccc1)C(=O)N[C@@H](CC(C)C)C(=O)O (Bz-KPYIL-OH) [listing 1 of 2 here]	–	–	–	–	–	–	–	100 nM
CC[C@H](C)[C@H](NC(=O)[C@H](Cc1ccc(O)cc1)NC(=O)[C@@H]1CCCN1C(=O)[C@H](CCCCN)NC(=O)c1ccccc1)C(=O)N[C@@H](CC(C)C)C(=O)O (Bz-KPYIL-OH) [listing 2 of 2 here]	0.16 ug mouse-1	5.5 mg/kg	0.0088 ug mouse-1	–	–	6.6 mg/kg	1.5 ug mouse-1	–
CC[C@H](C)[C@H](NC(=O)[C@H](Cc1ccc(O)cc1)NC(=O)[C@@H]1CCCN1C(=O)[C@@H](N)CCCN)C(=O)N[C@@H](CC(C)C)C(=O)O (H-[Orn]PYIL-OH) [listing 1 of 2 here]	–	–	–	–	–	–	–	520 nM
CC[C@H](C)[C@H](NC(=O)[C@H](Cc1ccc(O)cc1)NC(=O)[C@@H]1CCCN1C(=O)[C@@H](N)CCCN)C(=O)N[C@@H](CC(C)C)C(=O)O (H-[Orn]PYIL-OH) [listing 2 of 2 here]	20 ug mouse-1	–	23 ug mouse-1	–	–	–	67 ug mouse-1	–
CC[C@H](C)[C@H](NC(=O)[C@H](Cc1ccc(O)cc1)NC(=O)[C@@H]1CCCN1C(=O)[C@H](CCCCN)NC(=O)c1cccnc1)C(=O)N[C@@H](CC(C)C)C(=O)O (Nicotinoyl-KPYIL-OH) [listing 1 of 2 here]	–	–	–	–	–	–	–	420 nM
CC[C@H](C)[C@H](NC(=O)[C@H](Cc1ccc(O)cc1)NC(=O)[C@@H]1CCCN1C(=O)[C@H](CCCCN)NC(=O)c1cccnc1)C(=O)N[C@@H](CC(C)C)C(=O)O (Nicotinoyl-KPYIL-OH) [listing 2 of 2 here]	0.016 ug mouse-1	3 mg/kg	0.0016 ug mouse-1	–	–	3.6 mg/kg	0.3 ug mouse-1	–
CC[C@H](C)[C@H](NC(=O)[C@H](Cc1ccc(O)cc1)NC(=O)[C@@H]1CCCN1C(=O)[C@H](CCCCN)NC(=O)C(C)(C)C)C(=O)N[C@@H](CC(C)C)C(=O)O (Piv-KPYIL-OH) [listing 1 of 2 here]	–	–	–	–	–	–	–	190 nM
CC[C@H](C)[C@H](NC(=O)[C@H](Cc1ccc(O)cc1)NC(=O)[C@@H]1CCCN1C(=O)[C@H](CCCCN)NC(=O)C(C)(C)C)C(=O)N[C@@H](CC(C)C)C(=O)O (Piv-KPYIL-OH) [listing 2 of 2 here]	0.29 ug mouse-1	15 mg/kg	0.28 ug mouse-1	–	–	15 mg/kg	0.7 ug mouse-1	–
CCCCCCCCCCCCCCCCCC(=O)N[C@@H](CCCCN)C(=O)N1CCC[C@H]1C(=O)N[C@@H](Cc1ccc(O)cc1)C(=O)N[C@H](C(=O)N[C@@H](CC(C)C)C(=O)O)[C@@H](C)CC (Stearoyl-KPYIL-OH) [listing 1 of 2 here]	–	–	–	–	–	–	–	> 10000 nM
CCCCCCCCCCCCCCCCCC(=O)N[C@@H](CCCCN)C(=O)N1CCC[C@H]1C(=O)N[C@@H](Cc1ccc(O)cc1)C(=O)N[C@H](C(=O)N[C@@H](CC(C)C)C(=O)O)[C@@H](C)CC (Stearoyl-KPYIL-OH) [listing 2 of 2 here]	>50 ug mouse-1	–	38 ug mouse-1	–	–	–	>50 ug mouse-1	–
